Measured values reported in ChEMBL document CHEMBL1127113, “Diaryl ether/carboxylic acid derivatives of LY255283: Receptor antagonists of leukotriene B4” (Bioorg Med Chem Lett, 1993).
pIC50: −log10 of the molar value.

How the values were obtained:
Leukotriene B4 receptor = Leukotriene B4 receptor (Homo sapiens, UniProt Q9NPC1+Q15722); assay: Inhibition of specific binding of [3H]LTB4 to LTB4 receptor in human neutrophils; format: protein assay
[1] = molecular target: Leukotriene B4 receptor (Cavia porcellus); assay: Inhibition of specific binding of [3H]-LTB4 to LTB4 receptor in guinea pig lung membranes
Homo sapiens = organism: Homo sapiens; assay: The compound was evaluated for its ability to inhibit LTB4-induced chemotaxis of human neutrophils; format: functional

In the case of CCc1cc(C(C)=O)c(O)cc1OCCCOc1ccc(Oc2ccc(C(=O)[O-])cc2)cc1.[Na+], the IC50 (Leukotriene B4 receptor) was 190 nM and the Ki [1] was 90 nM.
CCc1cc(C(C)=O)c(O)cc1OCCCOc1cccc(Oc2cccc(C(=O)[O-])c2)c1.[Na+] gave an IC50 (Leukotriene B4 receptor) of 460 nM and a Ki [1] of 140 nM.
CCCc1cc(Oc2ccc(C(=O)[O-])cc2)ccc1OCCCOc1cc(O)c(C(C)=O)cc1CC.[Na+] was tested, and the IC50 (Leukotriene B4 receptor) was 330 nM and the Ki [1] was 1200 nM.
CCCc1c(OCCCOc2cc(O)c(C(C)=O)cc2CC)cccc1Oc1ccccc1C(=O)[O-].[Na+] was tested, and the pIC50 (Homo sapiens) was 6.10, the IC50 (Leukotriene B4 receptor) was 24 nM and the Ki [1] was 39 nM.
With CCCc1cc(Oc2cccc(C(=O)[O-])c2)ccc1OCCCOc1cc(O)c(C(C)=O)cc1CC.[Na+] the IC50 (Leukotriene B4 receptor) was 160 nM and the Ki [1] was 256 nM.
In the case of CCCc1c(OCCCOc2cc(O)c(C(C)=O)cc2CC)cccc1OCc1ccccc1C(=O)[O-].[Na+], the pIC50 (Homo sapiens) was 5.92, the IC50 (Leukotriene B4 receptor) was 130 nM and the Ki [1] was 244 nM.
Compound CCCc1c(OCCCCOc2cc(O)c(C(C)=O)cc2CC)cccc1Oc1ccccc1C(=O)[O-].[Na+] has a pIC50 (Homo sapiens) of 5.51, an IC50 (Leukotriene B4 receptor) of 94 nM and a Ki [1] of 59 nM.
CCc1cc(C(C)=O)c(O)cc1OCCCOc1cccc(Oc2ccccc2C(=O)[O-])c1.[Na+] was tested, and the IC50 (Leukotriene B4 receptor) was 290 nM and the Ki [1] was 130 nM.
